Like-named read-outs stand apart in the source and are kept apart here.
Key:
[1] = in vivo
Method: Samples were collected from patients in the 0.1 and 0.3 mg/kg dose cohorts before the study, on days 0, 1, 2, 4, 7, 10, 14, and every 7 days from days 21 to 70. Samples were collected from patients in the 1 and 3 mg/kg dose cohorts before the study, on days 0, 1, 2, 4, 7, 14, 21, 22, 23, 25, and every 7 days from days 28 to 56.

[2] = Administration to rats (safety); assay type: in vivo; settings: doses above 10 mg/kg
[3] = tested on: PS; experiment: ELISA binding to PS-coated plates
Method: The 3G4 antibody was produced by immunizing mice with autologous, PS-positive endothelial cells, as reported in Ran et al., 2005. The 3G4 antibody was tested for binding to PS in a standard ELISA in the presence and absence of serum, and was initially characterized as being “serum-independent”, i.e., an antibody that binds to PS in the absence of serum.
In a follow-on study, the binding of the 2aG4 antibody to PS was tested in an ELISA in the presence of varying concentrations of human β2GPI.
These included binding to PS in ELISAs, FACS analyses using PS-positive cells and functional assays in the form of an NFAT surrogate ADCC bioassay (Larson et al., 2013).

[4] = irrespective of the presence of serum; cited from earlier work
[5] = tested on: previously treated non-squamous NSCLC
Method: The primary objective of this study was to compare the ORR (CR+PR) among the treatment arms. Secondary objectives included comparing PFS, DR, OS, safety and PK.
Additional blood draws were performed for these patients during Cycles 1 and 2 at specified time points.
Samples from the NSCLC Phase II trial of Example IX (PPHM 0902) were tested using the functional β2GPI assay of Example XII.

[6] = tested on: HER2-negative metastatic breast cancer; experiment: Bavituximab and paclitaxel in HER2-negative metastatic breast cancer; assay type: in vivo, human
Excerpt: Manageable infusion-related reactions were the most common AE related to bavituximab.

[7] = tested on: hepatitis C virus (HCV); experiment: Phase I single intravenous infusion dose escalation study in chronic HCV; assay type: in vivo, human; settings: for Observed Cmax: HCV patients
Method: A Phase I, open-label, single center, dose escalation study evaluated a single intravenous infusion of bavituximab in patients chronically infected with HCV (Example III, A).
Bavituximab was first evaluated in Phase I, open-label, dose escalation studies and Phase Ib, open-label, escalating repeat-dose studies in patients chronically infected with hepatitis C virus (HCV). […] Doses of 0.1, 0.3, 1, 3 and 6 mg/kg were administered in Phase I (30 patients; successive cohorts of 6 patients), and doses of 0.3, 1, 3 and 6 mg/kg were administered in Phase Ib (24 patients; four cohorts of 6 patients).

[8] = tested on: PS; settings: in the presence of serum; cited from earlier work
[9] = tested on: tumors; experiment: Syngeneic and xenogeneic tumor models; assay type: in vivo, mice; settings: wide range of studies
Method: The 3G4 antibody was purified to apparent homogeneity from the supernatant of the cultured hybridoma using a standard Protein A procedure.
In early studies in mice, it was calculated that molar ratios of β2GPI to antibody of between 0.12 and 0.25 were effective for anti-tumor activity, thus showing that high levels of β2GPI are not necessary for anti-tumor activity.

[10] = tested on: locally advanced or metastatic breast cancer; experiment: Phase II bavituximab plus docetaxel in breast cancer; assay type: in vivo, human; settings: with docetaxel
Excerpt: This trial was also a Phase II, multicenter trial utilizing a Simon 2-stage design. […] The primary objective was to determine the ORR (CR+PR). Secondary objectives included time to tumor progression, DOR, OS and safety.
All patients received one prior chemotherapy regimen.

[11] = tested on: previously-treated Stage IIIb/IV non-squamous NSCLC; experiment: Phase III trial of bavituximab plus docetaxel in NSCLC; settings: functional β2GPI ≥200 μg/mL
Excerpt: This global, double-blind Phase III trial was initiated in 2012. Selection criteria were for patients with Stage IIIb/IV non-squamous NSCLC who progressed on platinum-doublet chemotherapy (should have progressed on appropriate targeted therapy if known EGFR or ALK mutation), with ECOG PS 0-1 and prior immunotherapy allowed (ECOG is the performance status scale defined by the Eastern Cooperative Oncology Group). […] The primary endpoint was overall survival (OS) and secondary endpoints included objective response rate (Independent Central Review, ICR), progression-free survival (ICR), safety, PK, Quality of Life (LCSS) and exploratory biomarkers, including immune correlates.
OS was analyzed by VeriStrat subgroups using Kaplan-Meier statistical methods.
A single cutoff method was first used to assess the patient β2GPI data.
The initial analyses described above prompted further, extensive analyses of the data in 592 evaluable patients. These analyses used a two cutoff method (Klein & Moeschberger, 2003).
Archival tissue obtained at the time of diagnosis was requested, but not required, in the Phase III trial of Example X. Formalin-fixed paraffin-embedded (FFPE) slides were stained with antibodies for a panel of lymphoid (or tumor) cell markers, as described in Feng et al., 2015: CD3+, CD8+, FoxP3+, PD-L1+, CD163+ and CK+ (cytokeratin, an epithelial carcinoma marker) using a mutliplex (6-plex) quantitative immunohistochemistry (IHC) assay (OPAL®, PerkinElmer, Waltham, Mass., USA) and using DAPI. The PD-L1 antibody used was the rabbit anti-PD-L1 antibody termed E1L3N® XP® (Cell Signaling Technology, (CST), Danvers, Mass., Catalogue #13684; Mahoney et al., 2015). Baseline PD-L1 expression was retrospectively scored on tumor cells (TC, i.e., CK+) and PD-L1 expressing tumor cells were classified according to their percentage within the total number of tumor cells using established assays and classifications (Fehrenbacher et al., 2016), as follows: TC3≥50%; TC2≥5% and ≤50%; TC1≥1% and <5%; and TC0<1%. Cox regression models for PD-L1 IHC subgroup populations were used for correlation with OS.
Kaplan-Meier statistical methods and Cox proportional hazard models were utilized to evaluate and contrast the correlation of peripheral (and intratumoral) IFNγ levels with OS based on a data cut from the Phase III trial (Example X) dated Feb.

[12] = Phase Ib study of bavituximab with gemcitabine, paclitaxel plus carboplatin or docetaxel: PK; assay type: in vivo, human; settings: 3 mg/kg weekly with gemcitabine
[13] = Administration to monkeys (safety); assay type: in vivo
[14] = Further pharmacokinetic studies in over 120 patients with cancer or viral infections; assay type: in vivo, human
[15] = biological target: T1, β2GPI (Homo sapiens, UniProt P02749); experiment: Antibody binding to β2GPI (domain mapping)
T1 sequence (P02749 20-345): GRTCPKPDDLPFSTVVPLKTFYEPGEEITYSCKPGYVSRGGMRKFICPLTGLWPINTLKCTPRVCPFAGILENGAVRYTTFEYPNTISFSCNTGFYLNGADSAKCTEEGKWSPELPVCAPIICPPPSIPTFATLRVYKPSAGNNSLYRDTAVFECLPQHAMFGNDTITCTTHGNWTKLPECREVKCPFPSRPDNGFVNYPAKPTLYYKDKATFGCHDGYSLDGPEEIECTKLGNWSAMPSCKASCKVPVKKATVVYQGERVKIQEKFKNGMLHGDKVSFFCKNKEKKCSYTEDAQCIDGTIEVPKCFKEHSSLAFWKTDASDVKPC
Excerpt: In summary, it was shown that the 3G4 antibody binds to β2GPI at domain II and that the lipid binding region of β2GPI domain V is required for co-binding of 3G4 (and ch3G4) and β2GPI to PS exposed on cells. […] Accordingly, antibody and β2GPI co-bind to PS exposed on the outer surfaces of membranes, such as occurs on activated endothelial cells, tumor vascular endothelial cells and tumor cells, as well as on virally infected cells.

[16] = ITT, all with docetaxel, Bavituximab arm 3 mg/kg
[17] = 3 mg/kg weekly with paclitaxel, 14 patients

bavituximab
accumulation following multiple-dose administration [1]: did not exhibit appreciable accumulation or time-dependent PK differences | tolerability [1]: well tolerated at doses ranging up to 3 mg/kg weekly | doses safely administered [2]: up to 100 mg/kg | binding to PS in ELISA in the absence of serum ([3]; antibody expressed in CHO cells under serum-free conditions): binding to PS was lost | binding to phospholipids in standard ELISA ([3]; phospholipid-coated ELISA plates): bound at least as well as the murine 3G4 | binding to neutral phospholipids PC, SM or PE [4]: no detectable binding | ORR greater than combined group by ([5]; 3 mg/kg): approximately 50% | median OS longer than combined group by ([5]; 3 mg/kg): approximately 60% | Deaths [5, 16]: 53.7% | Number of Deaths [5, 16]: 22 | Overall Response Rate (CR + PR) ([5]; ITT, central review, all with docetaxel, Bavituximab arm 3 mg/kg): 17.1% | pharmacokinetic drug-drug interaction ([5]; PK sub-study, 6 patients per arm, cycles 1 and 2): No clinically relevant pharmacokinetic drug-drug interaction was observed | mOS ([5]; functional β2GPI less than 200 μg/mL, bavituximab 3 mg/kg with docetaxel): 9.4 months | mOS ([5]; functional β2GPI ≥200 μg/mL, bavituximab 3 mg/kg, all with docetaxel): 16.8 months | median progression-free survival (PFS) ([6]; 3 mg/kg weekly with paclitaxel): 7.3 months | overall response rate (ORR) [6, 17]: 85% | patients having a complete response [6, 17]: 2 patients | tolerability ([6]; in combination with paclitaxel): well tolerated | most common adverse events ([6]; with paclitaxel): Bone pain, fatigue, headache and neutropenia | thrombogenicity ([6]; with paclitaxel): no evidence for increased thrombogenicity | Observed Cmax ([7]; 0.1 mg/kg single infusion): 2500 ng/mL | Observed Cmax ([7]; 0.3 mg/kg single infusion): 5700 ng/mL | Observed Cmax ([7]; 1 mg/kg single infusion): 24300 ng/mL | Observed Cmax ([7]; 3 mg/kg single infusion): 75800 ng/mL | Observed Cmax ([7]; 6 mg/kg single infusion): 135000 ng/mL | tolerability ([7]; Phase I and Phase Ib, 0.1 to 6 mg/kg): all dose levels of bavituximab were well tolerated | viral load ([7]; Phase I, all dose levels): transient reductions in viral load | binding to anionic phospholipids (PS, PI, PA, PG, CL) [8]: bind strongly to anionic phospholipids | in vivo localization and effects [9]: localize to tumor vascular endothelium and to exert anti-tumor effects and anti-viral effects | median DOR [10]: 6.1 months | median PFS [10]: 7.4 months | most common TEAEs of Grade ≥3 [10]: only fatigue, headache, back pain and hypertension were Grade ≥3 | CR ([10]; 46 patients): 10.9% | PR ([10]; 46 patients): 50.0% | objective response ([10]; 46 patients): 60.9% | median OS ([10]; final analysis): approximately 20.7 months | mOS ([11]; with subsequent IO): has yet to be reached | mOS ([11]; without subsequent IO): 10.5 months | accumulation (Cmax and AUC) [12]: no accumulation of bavituximab following multiple-dose administration | effect on β2GPI in the systemic circulation ([13]; 100 mg/kg): transiently decreased β2GPI in the systemic circulation | doses safely administered ([13]; doses above 10 mg/kg): up to 100 mg/kg | PK linearity ([14]; doses 0.1 to 6 mg/kg): linear single-dose and multiple-dose PK characteristics | time by which distribution phase is essentially complete ([14]; where observed): ≤ 6 h | β2GPI domain bound [15]: bind to domain II of β2GPI
